Measured values published in patent US9795600B2, “Method for treating abnormal β-amyloid mediated diseases” (NATIONAL TAIWAN NORMAL UNIVERSITY, priority 2014, dated 2017).

Experiments:
Trx-His-Aβ protein = biological target: T1, Trx-His-Aβ protein (Homo sapiens, UniProt P05067); assay: Trx-His-Aβ biochemical assay (thioflavin T staining); conditions: Trx-His-Aβ 10 μM, 37° C., 48 hr, Trx-His-Aβ with 2 days' incubation = 100%
T1 construct: the inventors overexpressed Trx-His tagged Aβ construct in E. coli; made in house; host or cells: E. coli
Description: Aggregation of β-amyloid (Aβ) was considered as target for intervention. For the biochemical assay, the inventors overexpressed Trx-His tagged Aβ construct in E. coli. After metal-affinity chromatography purification, the misfolded Trx-His-Aβ proteins can be identified by thioflavin T staining assay. The fluorescent intensity is increased after thioflavin T binds misfolded Trx-His-Aβ protein, and thus the misfolding level of Trx-His-Aβ protein can be measured. […] Then thioflavin T (10 μM) was added for 5 min and fluorescence analyzed on a microplate reader (excitation: 420 nm, emission: 485 nm). To normalize, the relative thioflavin T fluorescence of Trx-His-Aβ protein with 2 days' incubation at 37° C. is set as 100%. *, P<0.05 (n=3).

[1] = system: Tet-On Aβ-GFP HEK-293 cells; assay: Tet-On Aβ-GFP HEK-293 cell assay (GFP fluorescence, HCA); assay type: cell-based, human; conditions: 8 hr pretreatment, Dox 64 hr, untreated cells = 100%
Excerpt: For cell assay, we used a HEK-293 cell clone (human embryonic kidney cells) with Tet-On Aβ-GFP expression as a screening platform. GFP fluorescence was used to reflect Aβ aggregation status as Aβ aggregated rapidly to cause the fused GFP misfolded. Inhibition of Aβ aggregation may improve GFP misfolding, leading to increasing fluorescence on Aβ-GFP expressing cells. Tet-On Aβ-GFP HEK-293 cells were pretreated with different concentrations of compounds 1, 2, 6, 7 and curcumin for 8 hr before inducing Aβ-GFP expression. Then doxycycline (Dox) (10 μM) was added to the medium for 64 hr to induce Aβ-GFP expression, and GFP fluorescence was assessed by a high-content analysis (HCA) system (ImageXpressMICRO, available from Molecular Devices). To normalize, the relative GFP fluorescence of untreated cells (untreated with compounds 1, 2, 6 and 7, and curcumin) is set as 100%. *, P<0.05 as compared to the untreated cells; #, P<0.05 as compared to the same concentration curcumin-treated cells (n=3).

HSPB1 = HSPB1 expression in Aβ-GFP SH-SY5Y cells (Western blot); assay type: cell-based, human; conditions: 5 μM; uninduced cells = 100%, induced untreated cells 90%
Excerpt: The result is shown in FIG. 6, wherein the relative HSPB1 level of uninduced cells is set as 100%. *, P<0.05 between induced vs uninduced cells or compound-treated vs. untreated cells (n=3).

[2] = system: mouse hippocampal primary culture; assay: Mouse hippocampal primary culture under oligomeric Aβ toxicity; assay type: cell-based; conditions: 1, 10 or 30 μM, oligomeric Aβ 1 μM, vs. Aβ alone; for total cells (DAPI staining) against oligomeric Aβ toxicity: FIG. 7(A); for mature neurons (NeuN staining) against oligomeric Aβ toxicity: FIG. 7(B); for synaptophysin level against oligomeric Aβ toxicity: FIG. 7(F); for neurite outgrowth (process, branch, length; MAP2 staining) against oligomeric Aβ toxicity: FIGS. 7(C)-(E)
Description: Postnatal day 0-1 mouse hippocampus was isolated for primary culture, and used to confirm the neuroprotective potential of the compounds of the present invention. Oligomeric Aβ (1 μM) was applied to the primary culture after the indolylquinoline compound (compounds 1, 2, 6 and 7) administration (1, 10, or 30 μM) at day 9. Cells were harvested 1 hr later for immunocytochemical analysis and quantitated the total cell number (as shown in FIG. 7(A), by DAPI staining), mature neuron number (as shown in FIG. 7(B), by NeuN antibody staining), neurite process (as shown in FIG. 7(C), by MAP2 antibody staining), neurite branch (as shown in FIG. 7(D), by MAP2 antibody staining), neurite length (as shown in FIG. 7(E), by MAP2 antibody staining), and synaptophysin expression level (as shown in FIG. 7(F), by synaptophysin antibody staining) In FIG. 7(A) to (F), the relative amount of cells treated with vesicle (hexafluoroisopropanol) is set as 100%. ###, P<0.001 between cells treated with Aβ and vehicle (n=3). *, P<0.05; **, P<0.01; ***, P<0.001 between cells treated with Aβ combined the compound of the present invention and Aβ alone (n=3).

[3] = system: Tet-On Aβ-GFP HEK-293 cells; assay: ROS assay in Tet-On Aβ-GFP HEK-293 cells; assay type: cell-based, human; conditions: 5 μM; uninduced cells = 100%, induced untreated cells 128%
Description: Given that Aβ deposition causes cell death via a number of potential mechanisms including oxidative stress, the inventor also performed ROS assay with curcumin or synthetic indolylquinoline compounds 1, 2, 6 and 7 treatment (5 μM).

[4] = system: Tet-On Aβ-GFP SH-SY5Y cells; assay: Neurite outgrowth in Tet-On Aβ-GFP SH-SY5Y cells (TUBB3 immunostaining, HCA); assay type: cell-based, human; conditions: 5 μM; Dox 6 days; uninduced cells = 100%, induced untreated cells 87%
Description: Tet-On Aβ human neuroblastoma SH-SY5Y cells were used to examine the neuroprotective potential of the compounds of the present invention. Tet-On Aβ-GFP SH-SY5Y cells were plated into 24-well plates with 10 μM retinoic acid (RA), grown for 24 hr and treated with tested indolylquinoline compounds 1, 2, 6 and 7 (5 μM) for 8 hr. Then doxycycline (10 μM) was added to the medium to for 6 days. Neurite outgrowth was assessed after TUBB3 immunostaining, and examined with the HCA system. The result is shown in FIG. 5, wherein the relative neurite outgrowth of uninduced cells (untreated with Dox) is set as 100%. *, P<0.05 between induced vs. uninduced cells or compound-treated vs. untreated cells (n=3).

[5] = 1.2˜5.0 μM, above 80% of viable cells

T1 sequence (P05067 672-713 limits assumed): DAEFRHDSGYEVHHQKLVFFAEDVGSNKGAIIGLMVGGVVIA

Structure (SMILES)	relative thioflavin T fluorescence (misfolded Trx-His-Aβ aggregation) (Trx-His-Aβ protein; 10˜20 μM compound)	relative thioflavin T fluorescence (misfolded Trx-His-Aβ aggregation) (Trx-His-Aβ protein; 20 μM compound) [%]	relative thioflavin T fluorescence (misfolded Trx-His-Aβ aggregation) (Trx-His-Aβ protein; 5˜20 μM compound)	relative GFP fluorescence (Aβ-GFP) ([1]; 1.2˜2.5 μM, above 80% of viable cells)	relative HSPB1 level (HSPB1) [%]	total cells (DAPI staining) against oligomeric Aβ toxicity [2]	mature neurons (NeuN staining) against oligomeric Aβ toxicity [2]	synaptophysin level against oligomeric Aβ toxicity [2]	neurite outgrowth (process, branch, length; MAP2 staining) against oligomeric Aβ toxicity [2]	relative GFP fluorescence (Aβ-GFP) ([1]; 1.2 μM, above 80% of viable cells) [%]	relative GFP fluorescence (Aβ-GFP) ([1]; 2.5˜5.0 μM)	relative ROS level [3] [%]	relative neurite outgrowth [4] [%]	relative GFP fluorescence (Aβ-GFP) [1, 5]
CC(=O)C(=Cc1ccccc1[N+](=O)[O-])Cc1c(C)[nH]c2ccccc12 [compound 2]	74˜70%	–	–	107˜120%	112	significantly improved	significantly improved	significantly improved	significantly improved	–	–	–	–	–
CCc1cccc2c(CC(=Cc3ccccc3[N+](=O)[O-])C(C)=O)c[nH]c12 [compound 6]	–	–	90˜71%	–	116	significantly improved	significantly improved	significantly improved	significantly improved	–	–	–	–	107˜130%
CC(=O)C(=Cc1ccccc1[N+](=O)[O-])Cc1c[nH]c2ccccc12 [compound 1]	–	79	–	–	126	significantly improved	significantly improved	significantly improved	significantly improved	–	–	–	–	112˜129%

Now from value to compound, other results behind:

relative thioflavin T fluorescence (misfolded Trx-His-Aβ aggregation) (Trx-His-Aβ protein; 10˜20 μM compound)	relative thioflavin T fluorescence (misfolded Trx-His-Aβ aggregation) (Trx-His-Aβ protein; 20 μM compound) [%]	relative thioflavin T fluorescence (misfolded Trx-His-Aβ aggregation) (Trx-His-Aβ protein; 5˜20 μM compound)	Structure (SMILES)	relative GFP fluorescence (Aβ-GFP) ([1]; 1.2˜2.5 μM, above 80% of viable cells)	relative HSPB1 level (HSPB1) [%]	total cells (DAPI staining) against oligomeric Aβ toxicity [2]	mature neurons (NeuN staining) against oligomeric Aβ toxicity [2]	synaptophysin level against oligomeric Aβ toxicity [2]	neurite outgrowth (process, branch, length; MAP2 staining) against oligomeric Aβ toxicity [2]	relative GFP fluorescence (Aβ-GFP) ([1]; 1.2 μM, above 80% of viable cells) [%]	relative GFP fluorescence (Aβ-GFP) ([1]; 2.5˜5.0 μM)	relative ROS level [3] [%]	relative neurite outgrowth [4] [%]	relative GFP fluorescence (Aβ-GFP) [1, 5]
–	84	–	Cc1nc2ccccc2cc1Cc1c[nH]c2ccccc12 [compound 7]	–	117	significantly improved	significantly improved	significantly improved	significantly improved	105	–	–	–	–
–	–	76˜54%	COc1cc(/C=C/C(=O)CC(=O)/C=C/c2ccc(O)c(OC)c2)ccc1O [curcumin, reference compound]	–	123	–	–	–	–	–	111˜122%	86	105	–
